Test results published in US20060106064A1, “Butyrophenones and sigma-1 receptor antagonists protect against oxidative-stress” (University of North Texas Health Science Center at Fort …, priority 2004, published 2006).
Entries after “also recorded” stand apart in the source; their conditions may differ. Like-named read-outs stand apart in the source and are kept apart here.

What was measured:
[1] = test system: HT-22 cells; experiment: in vitro protection assay, glutamate-induced oxidative stress HT-22 cell model (Calcein AM cell survival)
[2] = molecular target: T1, human Sigma-1 receptor (Homo sapiens, UniProt Q99720); experiment: [3H]-(+)-pentazocine binding to MCF-7 cells stably expressing the cloned human Sigma-1 receptor; conditions: for affinity for the Sigma-1 receptor in words: FIG. 6
T1 construct: expressed in transfected cells

[3] = test system: stroke (ICD-9 433, 434, 435)
[4] = test system: NMDA receptors; conditions: cited from earlier work
[5] = test system: ferric chloride-induced lipid peroxidation in rat brain membranes; experiment: ferric chloride-induced lipid peroxidation in rat brain membranes (antioxidant activity); assay type: biochemical; conditions: even very high concentrations
Method: […]. Antioxidant activity was measured by the ability of compounds to prevent ferric chloride-induced lipid peroxidation in rat brain membranes. The antioxidant ZYC5 is a known antioxidant control. […]. In summary, in vitro protection against glutamate-induced oxidative stress in HT-22 cells is mediated by antagonism of Sigma-1 receptors.

[6] = test system: tMCAO induced brain injury; experiment: transient middle cerebral artery occlusion (tMCAO) ischemic stroke model, infarct volume by triphenyltetrazolium staining; assay type: in vivo, rat; conditions: 0.05 mg/kg acute, immediately after induction of 60 minute occlusion, ovariectomized female Sprague-Dawley rats, assessed 24 hrs after the stroke
[7] = read-out: Potency (EC50 ± SEM nM), Table 4
[8] = Table 2, receptor target screen
[9] = read-out: Potency (EC50 ± SEM), Table 2, receptor target screen
[10] = read-out: Potency (EC50 ± SEM), Table 5
[11] = Table 4, read-out: Affinity for the cloned Sigma-1 receptor (Ki ± SEM)
[12] = Mus musculus, HT-22, read-out: Potency (EC50 ± SEM, nM)
[13] = protection against oxidative stress induced by 20 mM glutamate, Table 1
[14] = patients with CABG in 1997, N = 11,444

T1 sequence (Q99720 whole entry): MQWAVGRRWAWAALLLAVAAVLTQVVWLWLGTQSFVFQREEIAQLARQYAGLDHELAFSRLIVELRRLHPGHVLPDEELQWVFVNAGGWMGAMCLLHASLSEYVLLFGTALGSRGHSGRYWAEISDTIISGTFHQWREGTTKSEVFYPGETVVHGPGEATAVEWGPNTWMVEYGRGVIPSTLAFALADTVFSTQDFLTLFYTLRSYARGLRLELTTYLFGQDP

SMILES | in vitro protection in words ([1]; FIGS. 2, 3 and 6) | Efficacy ± SEM ([1]; Table 4) | Efficacy ± SEM [1, 8] | EC50 [1, 12] [nM] | Efficacy ± SEM [1, 13] | other results
OC(CCCN1CCC(O)(c2ccc(Cl)cc2)CC1)c1ccc(F)cc1 (centres unmarked) | high potency protection | 58 ± 5.6 | – | – | – | EC50 [1, 7]: 12.9 ± 12.2 nM; affinity for the Sigma-1 receptor in words [2]: high affinity
Clc1ccc2c(c1)C(N1CCNCC1)=Nc1ccccc1O2 [Amoxapine] | – | – | 0 | – | – | –
CN1CCN(CCc2ccc(Cl)c(Cl)c2)CC1 [BD1063] | – | 61 ± 7.5 | 61 ± 7.5 | – | – | Efficacy ± SEM ([1]; Table 5): 61 ± 7.5; EC50 [1, 7]: 5.9 ± 3.5 nM; EC50 [1, 9]: 5.9 ± 3.5 nM; EC50 [1, 10]: 5.9 ± 3.5 nM; Ki [2, 11]: 3.1 ± 1.4 nM; Ki ([2]; Table 5, own value, read-out: Affinity for the Sigma-1 receptor (Ki)): 3.1 nM
O=C(CCCN1CCC(n2c(=O)[nH]c3ccccc32)CC1)c1ccc(F)cc1 [Benperidol, 1-[1-[4-(4-fluorophenyl)-4-oxo-butyl]-4-piperidyl]-3H-benzoimidazol-2-one] | do not provide potent protection | 66 ± 23 | – | 1160 ± 498 | – | Ki [2]: 252 ± 42 nM; affinity for the Sigma-1 receptor in words [2]: nor do they have high affinity
O=C(CCCN1CCC(O)(c2ccc(Br)cc2)CC1)c1ccc(F)cc1 [Bromperidol, 4-[4-(4-bromophenyl)-4-hydroxy-1-piperidyl]-1-(4-fluorophenyl)-butan-1-one] | high potency protection | 67 ± 9.8 | – | 0.95 ± 0.82 | – | affinity for the Sigma-1 receptor in words [2]: high affinity; Ki [2, 11]: 1.2 ± 0.21 nM
O=C(CCCN1CCC(O)(c2ccc(Cl)cc2)CC1)c1ccc(Cl)cc1 [Chlorohaloperidol, 1-(4-chlorophenyl)-4-[4-(4-chlorophenyl)-4-hydroxy-1-piperidyl]-butan-1-one] | high potency protection | 64 ± 3.4 | – | 4.3 ± 1.7 | – | Ki [2]: 1.5 ± 0.36 nM; affinity for the Sigma-1 receptor in words [2]: high affinity
CN(C)CCCN1c2ccccc2Sc2ccc(Cl)cc21 [Chlorpromazine] | – | – | – | > 1000 | 0 | –
CN(C)CC/C=C1/c2ccccc2Sc2ccc(Cl)cc21 [Chlorprothixene] | – | – | – | > 1000 | 0 | –
CN1CCN(C2=Nc3cc(Cl)ccc3Nc3ccccc32)CC1 [Clozapine] | – | – | – | – | 0 | –
CC(=O)CC(c1ccccc1)c1c(O)c2ccccc2oc1=O (centres unmarked) [Coumadin] | – | – | – | – | – | B (logistic regression coefficient for stroke) ([3]; full model N = 145,576): 1.018; Odds Ratio for stroke ([3]; full model N = 145,576): 2.769; times more likely to have a stroke during the year ([3]; general model): about 2.7 times; B (logistic regression coefficient for stroke) [3, 14]: 0.849; Odds Ratio for stroke [3, 14]: 2.337
O=C(CCCN1CC=C(n2c(=O)[nH]c3ccccc32)CC1)c1ccc(F)cc1 [Droperidol, 1-[1-[4-(4-fluorophenyl)-4-oxo-butyl]-3,6-dihydro-2H-pyridin-4-yl]-3H-benzoimidazol-2-one] | do not provide potent protection | 100 | – | 5270 ± 2230 | – | –
OCCN1CCN(CCCN2c3ccccc3Sc3ccc(C(F)(F)F)cc32)CC1 [Flupenazine] | – | – | – | – | 0 | EC50 ([1]; read-out: Potency (EC50 ± SEM), protection against oxidative stress induced by 20 mM glutamate, Table 1): > 1000 nM
O=C(CCCN1CCC(O)(c2ccc(Cl)cc2)CC1)c1ccc(F)cc1 [Haloperidol, 4-[4-(4-chlorophenyl)-4-hydroxy-1-piperidyl]-1-(4-fluorophenyl)-butan-1-one] | strong neuroprotection; also recorded: high potency protection | 65 ± 2.5 | – | – | 65 ± 2.5 | B (logistic regression coefficient for stroke) ([3]; full model N = 145,576): −0.464; B (logistic regression coefficient for stroke) [3, 14]: −0.926; decrease of risk of stroke ([3]; patients with CABG surgery in 1997, significant only at the 0.07 level): about 60%; affinity of NMDA receptors for haloperidol [4]: > 1 µM; antioxidant activity (prevention of lipid peroxidation) [5]: failed to prevent ferric chloride-induced peroxidation of brain lipids; reduction in infarct volume [6]: 50%
O=C(c1ccc(F)cc1)C1CCN(CCn2c(=O)[nH]c3ccccc3c2=O)CC1 [Ketanserin] | – | – | 0 | > 1000 | – | –
OC1(c2ccc(Cl)cc2)CCN(Cc2c[nH]c3ccccc23)CC1 [L741626] | – | – | 0 | – | – | EC50 [1, 9]: > 1000 nM
Cc1c(C2CCN(CCc3ccccc3)CC2)noc1-c1ccc(Cl)cc1 [L741742, 5-(4-Chlorophenyl)-4-methyl-3-(l-(2-phenylethyl)piperidin-4-yl)isoxazole] | – | 61 ± 2.7 | 61 ± 2.7 | – | – | EC50 ([1]; read-out: In vitro Protective Potency (EC50 ± SEM), Table 3): 1.2 ± 0.82 nM; EC50 [1, 7]: 1.2 ± 0.82 nM; EC50 [1, 9]: 1.2 ± 0.82 nM; Ki [2, 11]: 4.8 ± 0.41 nM
Clc1ccc(N2CCN(Cc3c[nH]c4ncccc34)CC2)cc1 [L745870, 3-((4-(4-Chlorophenyl)piperazin-1-yl)-methyl)-1H-pyrrolo-2,3-b-pyridine] | – | – | – | – | – | Efficacy ± SEM [1]: 50 ± 9.6; EC50 ([1]; read-out: In vitro Protective Potency (EC50 ± SEM)): 895 ± 736 nM; EC50 ([1]; read-out: Potency (EC50 ± SEM nM)): 895 ± 736 nM; EC50 ([1]; read-out: Potency (EC50 ± SEM)): 895 ± 736 nM
CN1CCN(C2=Nc3ccccc3Oc3ccc(Cl)cc32)CC1 [Loxapine] | – | – | – | > 1000 | 0 | –
CN1CCN2c3ncccc3Cc3ccccc3C2C1 (centres unmarked) [Mirtazapine] | – | – | 0 | > 1000 | – | –
Cc1cccc(C(=O)NCN2CCN(c3ccccc3C#N)CC2)c1 [PD168077] | – | – | 0 | – | – | EC50 [1, 9]: > 1000 nM
O=C(OCCN1CCOCC1)C1(c2ccccc2)CCCCC1 [PRE-084] | – | – | 0 | – | – | EC50 [1, 9]: > 1000 nM; EC50 [1, 10]: > 1000 nM
OC1(c2ccc(Cl)c(C(F)(F)F)c2)CCN(CCCC(c2ccc(F)cc2)c2ccc(F)cc2)CC1 [Penfluridol, 1-[4,4-bis(4-fluorophenyl)butyl]-4-[4-chloro-3-(trifluoromethyl)phenyl]-piperidin-4-ol] | moderate protective potency | 80 ± 20 | – | – | – | EC50 [1, 7]: 350 ± 246 nM; affinity for the Sigma-1 receptor in words [2]: moderate affinity; Ki [2, 11]: 53 ± 15 nM
OCCN1CCN(CCCN2c3ccccc3Sc3ccc(Cl)cc32)CC1 [Perphenazine] | – | – | – | > 1000 | 0 | –
O=c1[nH]c2ccccc2n1C1CCN(CCCC(c2ccc(F)cc2)c2ccc(F)cc2)CC1 [Pimozide] | – | – | 0 | > 1000 | – | EC50 ([1]; Mus musculus, HT-22, read-out: In vitro Protective Potency (EC50 ± SEM, nM)): > 1000 nM
Cc1nc2n(c(=O)c1CCN1CCC(c3noc4cc(F)ccc34)CC1)CCCC2 [Risperidone] | – | – | – | – | 0 | –
CCN1CCC[C@H]1CNC(=O)c1c(O)c(Cl)cc(Cl)c1OC [S-(−)-Raclopride] | no neuroprotection | – | 0 | > 1000 | 0 | EC50 [1, 9]: > 1000 nM
CCC(Oc1ccc(Cl)cc1)C(=O)OC1CC2CCC(C1)N2C (centres unmarked) [SM-21] | no protective effect | – | 0 | – | – | EC50 [1, 9]: > 1000 nM; EC50 [1, 10]: > 1000 nM
O=C(CCCN1CCC2(CC1)C(=O)NCN2c1ccccc1)c1ccc(F)cc1 [Spiperone, 8-[4-(4-fluorophenyl)-4-oxo-butyl]-1-phenyl-1,3,8-triazaspiro[4.5]decan-4-one] | do not provide potent protection | 100 | – | – | – | affinity for the Sigma-1 receptor in words [2]: nor do they have high affinity; Ki [2, 11]: 1050 ± 334 nM
CSc1ccc2c(c1)N(CCC1CCCCN1C)c1ccccc1S2 (centres unmarked) [Thioridazine] | – | – | – | – | 0 | –
O=C(CCCN1CCC(O)(c2cccc(C(F)(F)F)c2)CC1)c1ccc(F)cc1 [Trifluperidol, 1-(4-fluorophenyl)-4-[4-hydroxy-4-[3-(trifluoromethyl)phenyl]-1-piperidyl]-butan-1-one] | – | – | – | 7.5 ± 6.3 | – | Efficacy ± SEM [1]: 55 ± 3.0; in vitro protection in words [1]: high potency protection; affinity for the Sigma-1 receptor in words [2]: high affinity
